In patent US4948796A, “Piperazine derivative or its salt, process for producing the same and pharmaceutical composition comprising the same as active ingredient” (Toyama Chemical Co., Ltd., priority 1988, dated 1990):
Structures can show the parent of a compound that is named as a salt.

system: male ICR mice; test: Acute Toxicity; format: in vivo; conditions: intravenous, 25 mg/kg, three male ICR mice per group
Description: (§1) Next, the pharmacological activity of typical compounds of this invention is explained in detail below. The compounds of this invention shown in Table 1 where subjected to the following test in the form of a hydrochloride to obtain the results shown in each test item.
A test compounds were intravenously administered to a group of three male ICR mice, weighing 20 to 26 g. The mortality was determined.
The test compounds were dissolved in a physiological saline solution. However, the test compound Nos. 7, 23 and 24 were dissolved in an aqueous solution containing 10% of dimethylsulfoxide and 10% of Cremophor EL and flunarizine was dissolved in 0.1M aqueous lactic acid solution.

Compound | mortality
COc1ccccc1/C=C/CN1CCN(C2c3ccccc3CCc3ccc([N+](=O)[O-])cc32)CC1 (stereo not shown) [compound 24] | no death case was found
C(=C\c1ccc2sccc2c1)/CN1CCN(C2c3ccccc3CCc3ncccc32)CC1 (stereo not shown) [compound 19] | no death case was found
Clc1cccc(/C=C/CN2CCN(C3c4ccccc4CCc4ncccc43)CC2)c1Cl (stereo not shown) [compound 18] | no death case was found
O=[N+]([O-])c1cccc(/C=C/CN2CCN(C3c4ccccc4CCc4ncccc43)CC2)c1 (stereo not shown) [compound 14] | no death case was found
COc1ccc(/C=C/CN2CCN(C3c4ccccc4CCc4ncccc43)CC2)cc1OC (stereo not shown) [compound 3] | no death case was found
O=[N+]([O-])c1ccc(/C=C/CN2CCN(C3c4ccccc4CCc4ncccc43)CC2)cc1 (stereo not shown) [compound 6] | no death case was found
O=[N+]([O-])c1cccc2c(/C=C/CN3CCN(C4c5ccccc5CCc5ncccc54)CC3)cccc12 (stereo not shown) [compound 21] | no death case was found
COc1ccc(/C=C/CN2CCN(C3c4ccccc4CCc4ncccc43)CC2)c(OC)c1OC (stereo not shown) [compound 8] | no death case was found
C(=C\c1cccc2ccsc12)/CN1CCN(C2c3ccccc3CCc3ncccc32)CC1 (stereo not shown) [compound 20] | no death case was found
COc1ccc(/C=C/CN2CCN(C3c4ccccc4CCc4ncccc43)CC2)cc1N (stereo not shown) [compound 17] | no death case was found
Fc1ccc(/C=C/CN2CCN(C3c4ccccc4CCc4ncccc43)CC2)cc1F (stereo not shown) [compound 13] | no death case was found
Clc1ccc(/C=C/CN2CCN(C3c4ccccc4CCc4ncccc43)CC2)cc1Cl (stereo not shown) [compound 12] | no death case was found
Clc1cccc(/C=C/CN2CCN(C3c4ccccc4CCc4ncccc43)CC2)c1 (stereo not shown) [compound 11] | no death case was found
C(=C\c1ccccc1)/CN1CCN(C2c3ccccc3CCc3ncccc32)CC1 (stereo not shown) [compound 1] | no death case was found
COc1ccc(/C=C/CN2CCN(C3c4ccccc4CCc4ncccc43)CC2)cc1[N+](=O)[O-] (stereo not shown) [compound 10] | no death case was found
Fc1ccc(C(c2ccc(F)cc2)N2CCN(C/C=C/c3ccccc3)CC2)cc1 [Control compd. A, Flunarizine dihydrochloride, reference compound] | no death case was found
COc1ccc(/C=C/CN2CCN(C3c4ccccc4CCc4ncccc43)CC2)cc1Oc1ccccc1 (stereo not shown) [compound 7] | no death case was found
O=[N+]([O-])c1ccc2c(c1)C(N1CCN(C/C=C/c3ccccc3)CC1)c1ccccc1CC2 (stereo not shown) [compound 23] | no death case was found

system: male ICR mice; test: Protective Effect against Hypobaric Hypoxia; format: in vivo; conditions: Mus musculus, po, 2 h, 80 mg/kg orally, one or two hours before 210 mmHg, vehicle group (5% dimethylsulfoxide, 5% Cremophor EL) = 100, read-out: Survival time (ratio)
Description: as §1
2. Protective Effect against Hypobaric Hypoxia
Each mouse was given 80 mg/kg of test compound orally one or two hours before the mice were placed under the hypobaric condition, and the survival time was measured.
The test compounds were dissolved in a physiological saline solution. However, the test compounds Nos. 7 and 23 were dissolved in an aqueous solution containing 5% of dimethylsulfoxide and 5% of Cremophor EL, and the control compound A (flunarizine) was dissolved in a 1.5% aqueous tartaric acid solution and then they were administered. Each study was carried out using 20 mice per group.
The protective effect against hypobaric hypoxide was determined as a ratio of the survival time of the group to which the test compounds was administered to that of the group to which an aqueous solution containing 5% of dimethylsulfoxide and 5% of Cremophor EL, the latter being indicated as 100.

Compound | response vs control in vivo at 80 mg/kg [%]
C(=C\c1ccc2sccc2c1)/CN1CCN(C2c3ccccc3CCc3ncccc32)CC1 (stereo not shown) [compound 19] | 138
O=[N+]([O-])c1cccc(/C=C/CN2CCN(C3c4ccccc4CCc4ncccc43)CC2)c1 (stereo not shown) [compound 14] | 139
COc1ccc(/C=C/CN2CCN(C3c4ccccc4CCc4ncccc43)CC2)cc1OC (stereo not shown) [compound 3] | 136
O=[N+]([O-])c1ccc(/C=C/CN2CCN(C3c4ccccc4CCc4ncccc43)CC2)cc1 (stereo not shown) [compound 6] | 135
C(=C\c1ccc2c(c1)OCO2)/CN1CCN(C2c3ccccc3CCc3ncccc32)CC1 (stereo not shown) [compound 9] | 155
C(=C\c1cccc2ccsc12)/CN1CCN(C2c3ccccc3CCc3ncccc32)CC1 (stereo not shown) [compound 20] | 142
COc1ccc(/C=C/CN2CCN(C3c4ccccc4CCc4ncccc43)CC2)cc1N (stereo not shown) [compound 17] | 143
Fc1ccc(/C=C/CN2CCN(C3c4ccccc4CCc4ncccc43)CC2)cc1F (stereo not shown) [compound 13] | 148
Clc1ccc(/C=C/CN2CCN(C3c4ccccc4CCc4ncccc43)CC2)cc1Cl (stereo not shown) [compound 12] | 129
Clc1cccc(/C=C/CN2CCN(C3c4ccccc4CCc4ncccc43)CC2)c1 (stereo not shown) [compound 11] | 146
C(=C\c1ccccc1)/CN1CCN(C2c3ccccc3CCc3ncccc32)CC1 (stereo not shown) [compound 1] | 180
Fc1ccc(C(c2ccc(F)cc2)N2CCN(C/C=C/c3ccccc3)CC2)cc1 [Control compd. A, Flunarizine dihydrochloride, reference compound] | 61
COc1ccc(/C=C/CN2CCN(C3c4ccccc4CCc4ncccc43)CC2)cc1Oc1ccccc1 (stereo not shown) [compound 7] | 158
O=[N+]([O-])c1ccc2c(c1)C(N1CCN(C/C=C/c3ccccc3)CC1)c1ccccc1CC2 (stereo not shown) [compound 23] | 205

system: vertebral blood flow (VBF); test: Vertebral Blood Flow Increasing Activity (anesthetized dogs, intravenous); format: in vivo; conditions: Canis lupus familiaris, iv; increase of VBF by 1 mg/kg papaverine hydrochloride regarded as 100%; anesthetized mongrel dogs, 2-5 per group; test compounds as hydrochloride
Description: Next, the pharmacological activity of typical compounds of this invention is explained in detail below.
- 1. Vertebral Blood Flow Increasing Activity
Mongrel dogs of both sexes weighing from 12 to 20 kg were anesthetized with sodium pentobarbital.
Vertebral blood flow (VBF) and femoral blood flow (FBF) were measured by an electromagnetic flowmeter (MFV-2100 and MFV-3100, Nihon Kohden).
Test compound solutions were injected intravenously in a volume of 0.2 ml/kg.
Also, the ratio of percent increase of VBF to FBF elicited by test compounds were indicated as an index of cerebral vessel selectivity.
The test compounds were dissolved in a physiological saline solution.
Thereafter, the resulting solution was diluted with a physiological saline solution to the desired concentration. Each study was carried out using 2-5 dogs per group.

Compound | ED50 [mg/kg]
COc1ccccc1/C=C/CN1CCN(C2c3ccccc3CCc3ccc([N+](=O)[O-])cc32)CC1 (stereo not shown) [compound 24] | 0.35
C(=C\c1ccc2sccc2c1)/CN1CCN(C2c3ccccc3CCc3ncccc32)CC1 (stereo not shown) [compound 19] | 0.32
Clc1cccc(/C=C/CN2CCN(C3c4ccccc4CCc4ncccc43)CC2)c1Cl (stereo not shown) [compound 18] | 0.3
O=[N+]([O-])c1cccc(/C=C/CN2CCN(C3c4ccccc4CCc4ncccc43)CC2)c1 (stereo not shown) [compound 14] | 0.3
COc1ccc(/C=C/CN2CCN(C3c4ccccc4CCc4ncccc43)CC2)cc1OC (stereo not shown) [compound 3] | 0.3
O=[N+]([O-])c1cccc2c(/C=C/CN3CCN(C4c5ccccc5CCc5ncccc54)CC3)cccc12 (stereo not shown) [compound 21] | 0.33
COc1ccc(/C=C/CN2CCN(C3c4ccccc4CCc4ncccc43)CC2)c(OC)c1OC (stereo not shown) [compound 8] | 0.14
COc1ccc(/C=C/CN2CCN(C3c4ccccc4CCc4ncccc43)CC2)cc1 (stereo not shown) [compound 5] | 0.3
O=[N+]([O-])c1ccc2c(c1)C(N1CCN(C/C=C/c3ccccc3)CC1)c1ccccc1SC2 (stereo not shown) [compound 25] | 0.28
C(=C\c1ccc2c(c1)OCO2)/CN1CCN(C2c3ccccc3CCc3ncccc32)CC1 (stereo not shown) [compound 9] | 0.45
C(=C\c1cccc2ccsc12)/CN1CCN(C2c3ccccc3CCc3ncccc32)CC1 (stereo not shown) [compound 20] | 0.36
Clc1ccc(/C=C/CN2CCN(C3c4ccccc4CCc4ncccc43)CC2)cc1Cl (stereo not shown) [compound 12] | 0.3
COc1ccc(/C=C/CN2CCN(C3c4ccccc4CCc4ncccc43)CC2)cc1Oc1cccnc1 (stereo not shown) [compound 16] | 0.15
C(=C\c1ccccc1)/CN1CCN(C2c3ccccc3CCc3cnccc32)CC1 (stereo not shown) [compound 2] | 0.34
COc1cc(/C=C/CN2CCN(C3c4ccccc4CCc4ncccc43)CC2)ccc1Oc1cccnc1 (stereo not shown) [compound 15] | 0.18
COc1ccc(/C=C/CN2CCN(C3c4ccccc4CCc4ncccc43)CC2)cc1[N+](=O)[O-] (stereo not shown) [compound 10] | 0.17
C1=Cc2ncccc2C(N2CCN(C/C=C/c3ccccc3)CC2)c2ccccc21 (stereo not shown) [compound 22] | 0.15
COc1ccccc1/C=C/CN1CCN(C2c3ccccc3CCc3ncccc32)CC1 (stereo not shown) [compound 4] | 0.22
O=[N+]([O-])c1cccc(/C=C/CN2CCN(C3c4ccccc4CCc4ccc([N+](=O)[O-])cc43)CC2)c1 (stereo not shown) [compound 26] | 0.28
Fc1ccc(C(c2ccc(F)cc2)N2CCN(C/C=C/c3ccccc3)CC2)cc1 [Control compd. A, Flunarizine dihydrochloride, reference compound] | 0.28
COc1ccc(/C=C/CN2CCN(C3c4ccccc4CCc4ncccc43)CC2)cc1Oc1ccccc1 (stereo not shown) [compound 7] | 0.11
O=[N+]([O-])c1ccc2c(c1)C(N1CCN(C/C=C/c3ccccc3)CC1)c1ccccc1CC2 (stereo not shown) [compound 23] | 0.32

same assay, conditions: ratio of percent increase of VBF to FBF (femoral blood flow); i.v.; anesthetized mongrel dogs

Compound | Cerebral vessel selectivity
COc1ccccc1/C=C/CN1CCN(C2c3ccccc3CCc3ccc([N+](=O)[O-])cc32)CC1 (stereo not shown) [compound 24] | 14.3
C(=C\c1ccc2sccc2c1)/CN1CCN(C2c3ccccc3CCc3ncccc32)CC1 (stereo not shown) [compound 19] | 4.1
Clc1cccc(/C=C/CN2CCN(C3c4ccccc4CCc4ncccc43)CC2)c1Cl (stereo not shown) [compound 18] | 10.4
O=[N+]([O-])c1cccc(/C=C/CN2CCN(C3c4ccccc4CCc4ncccc43)CC2)c1 (stereo not shown) [compound 14] | 3.8
COc1ccc(/C=C/CN2CCN(C3c4ccccc4CCc4ncccc43)CC2)cc1OC (stereo not shown) [compound 3] | 5.0
O=[N+]([O-])c1cccc2c(/C=C/CN3CCN(C4c5ccccc5CCc5ncccc54)CC3)cccc12 (stereo not shown) [compound 21] | 3.4
COc1ccc(/C=C/CN2CCN(C3c4ccccc4CCc4ncccc43)CC2)c(OC)c1OC (stereo not shown) [compound 8] | 4.5
COc1ccc(/C=C/CN2CCN(C3c4ccccc4CCc4ncccc43)CC2)cc1 (stereo not shown) [compound 5] | 8.8
O=[N+]([O-])c1ccc2c(c1)C(N1CCN(C/C=C/c3ccccc3)CC1)c1ccccc1SC2 (stereo not shown) [compound 25] | 10.6
C(=C\c1ccc2c(c1)OCO2)/CN1CCN(C2c3ccccc3CCc3ncccc32)CC1 (stereo not shown) [compound 9] | 6.9
C(=C\c1cccc2ccsc12)/CN1CCN(C2c3ccccc3CCc3ncccc32)CC1 (stereo not shown) [compound 20] | 4.1
Clc1ccc(/C=C/CN2CCN(C3c4ccccc4CCc4ncccc43)CC2)cc1Cl (stereo not shown) [compound 12] | 5.6
COc1ccc(/C=C/CN2CCN(C3c4ccccc4CCc4ncccc43)CC2)cc1Oc1cccnc1 (stereo not shown) [compound 16] | 3.6
C(=C\c1ccccc1)/CN1CCN(C2c3ccccc3CCc3cnccc32)CC1 (stereo not shown) [compound 2] | 8.8
COc1cc(/C=C/CN2CCN(C3c4ccccc4CCc4ncccc43)CC2)ccc1Oc1cccnc1 (stereo not shown) [compound 15] | 4.6
COc1ccc(/C=C/CN2CCN(C3c4ccccc4CCc4ncccc43)CC2)cc1[N+](=O)[O-] (stereo not shown) [compound 10] | 9.1
C1=Cc2ncccc2C(N2CCN(C/C=C/c3ccccc3)CC2)c2ccccc21 (stereo not shown) [compound 22] | 5.4
COc1ccccc1/C=C/CN1CCN(C2c3ccccc3CCc3ncccc32)CC1 (stereo not shown) [compound 4] | 3.0
O=[N+]([O-])c1cccc(/C=C/CN2CCN(C3c4ccccc4CCc4ccc([N+](=O)[O-])cc43)CC2)c1 (stereo not shown) [compound 26] | 4.4
Fc1ccc(C(c2ccc(F)cc2)N2CCN(C/C=C/c3ccccc3)CC2)cc1 [Control compd. A, Flunarizine dihydrochloride, reference compound] | 2.1
COc1ccc(/C=C/CN2CCN(C3c4ccccc4CCc4ncccc43)CC2)cc1Oc1ccccc1 (stereo not shown) [compound 7] | 16.7
O=[N+]([O-])c1ccc2c(c1)C(N1CCN(C/C=C/c3ccccc3)CC1)c1ccccc1CC2 (stereo not shown) [compound 23] | 5.0
